Results on twelve molecules are retold here after article PMC7312527 (International Journal of Molecular Sciences, 2020).

Where “and” joins values, the source holds several entries; their conditions need not be identical. Equal values may be shown once. Bounds are passed on as bounds.

Data set [1] addresses T1, hyaluronidase (Bos taurus, UniProt Q2YDK3).
T1 sequence (Q2YDK3 36-553): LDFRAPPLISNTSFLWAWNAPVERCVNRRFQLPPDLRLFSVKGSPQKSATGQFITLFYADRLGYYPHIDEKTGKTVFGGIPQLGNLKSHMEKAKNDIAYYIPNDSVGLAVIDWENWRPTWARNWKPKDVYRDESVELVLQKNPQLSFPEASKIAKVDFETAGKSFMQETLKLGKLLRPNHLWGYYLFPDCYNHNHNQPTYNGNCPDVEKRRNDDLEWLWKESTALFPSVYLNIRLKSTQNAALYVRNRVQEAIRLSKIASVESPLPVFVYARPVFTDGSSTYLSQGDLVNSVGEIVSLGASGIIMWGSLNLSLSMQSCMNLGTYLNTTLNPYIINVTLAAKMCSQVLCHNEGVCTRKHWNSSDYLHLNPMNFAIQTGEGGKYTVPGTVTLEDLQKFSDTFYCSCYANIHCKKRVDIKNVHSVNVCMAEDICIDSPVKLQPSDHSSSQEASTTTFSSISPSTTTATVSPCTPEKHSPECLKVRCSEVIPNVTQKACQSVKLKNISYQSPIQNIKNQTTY
In words: Hyaluronidase (HYAL) inhibition test (turbidimetry). The data set is classed as biochemical. Here is the method:
The hyaluronidase inhibition assay was set by turbidimetry according to USP XXII-NF XVII, modified by Piwowarski, to the 96-wells plates test. Tested compound solutions were freshly prepared before the assay. The protocol started with the addition of 20 µL of the tested compound in monosodium phosphate buffer and 40 µL of hyaluronidase solution (22.5 U/mL, Sigma Aldrich) to each well. The plate was kept in the dark (10 min, 37 °C). In the next step, 40 µL of hyaluronic acid solution (0.03%, Sigma Aldrich) in monosodium phosphate buffer was added to the wells and the plate was incubated again (45 min, 37 °C). Finally, 300 µL of bovine serum albumin (0.1%, Serva) in sodium acetate buffer was added to the wells and the mixture was kept at room temperature for 10 min. The assay was carried out in triplicate. Changes in turbidity were measured by a microplate reader (BioTek, Winooski, VT, USA) at 600 nm. Heparin (WZF, Polfa, Warszawa, Poland) was the positive control. The inhibitory activity of the tested compound was calculated from the Equation (1):(1) % inhibition=100x1−AHA−AAN/AHA−AHYAL where AHA is the absorbance of solution without the enzyme (positive control), AHYAL is the absorbance of solution without the tested compound (negative control), and AAN is the absorbance of solution with the tested compound.

The target of data set [2] is AChE from electric eel (Electrophorus electricus, UniProt O42275). In words: biochemical. As to conditions: for Selectivity for AChE: IC50 (BuChE)/IC50(AChE); for IC50: means ± SD of three independent experiments, read-out: EeAChE IC50 ± SD.
Sequence of AChE from electric eel (O42275 24-633): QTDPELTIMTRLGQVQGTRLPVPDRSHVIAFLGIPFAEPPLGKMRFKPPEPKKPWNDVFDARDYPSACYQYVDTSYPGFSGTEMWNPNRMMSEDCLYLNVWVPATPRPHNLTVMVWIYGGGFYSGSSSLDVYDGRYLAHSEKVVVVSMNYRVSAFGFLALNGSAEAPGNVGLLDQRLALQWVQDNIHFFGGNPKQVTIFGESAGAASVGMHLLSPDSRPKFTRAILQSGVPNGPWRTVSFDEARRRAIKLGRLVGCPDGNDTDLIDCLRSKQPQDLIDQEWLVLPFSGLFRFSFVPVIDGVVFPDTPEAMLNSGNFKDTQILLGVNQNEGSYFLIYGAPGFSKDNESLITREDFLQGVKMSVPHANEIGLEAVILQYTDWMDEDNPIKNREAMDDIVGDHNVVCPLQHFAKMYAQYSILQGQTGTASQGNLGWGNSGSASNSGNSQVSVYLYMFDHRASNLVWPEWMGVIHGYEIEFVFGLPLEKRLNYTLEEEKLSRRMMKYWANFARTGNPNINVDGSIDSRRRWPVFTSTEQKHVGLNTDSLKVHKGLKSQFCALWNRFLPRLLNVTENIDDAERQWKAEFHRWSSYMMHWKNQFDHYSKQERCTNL
Data set [3] concerns the target BuChE from equine serum (Equus caballus, UniProt P81908). In words: biochemical. Conditions: for Selectivity for BuChE: IC50(AChE)/IC50(BuChE); for IC50: means ± SD of three independent experiments, read-out: EqBuChE IC50 ± SD.
The conditions of data set [4]: Experimental Properties; cited from earlier work.
Data set [5] deals with SH-SY5Y cells. In words: Neuroprotection against rotenone/oligomycin A, co-incubation (MTT). Conditions: R/O mixture. Type of data set: cell-based, human.
The subject of data set [6] is SH-SY5Y cells. In words: Neuroprotection against rotenone/oligomycin A, pre-incubation (MTT). Type of data set: cell-based, human. As to conditions: R/O mixture, 0.001 µM.
The test system of data set [7] is SH-SY5Y cells. In words: Neuroprotection against oxidative stress induced by H2O2 (MTT). The data set is classed as cell-based, human. Conditions: H2O2 100 µM.
The nature of data set [8]: in vitro. The data set is classed as cell-based. Conditions: human. Here is the method: (§1) Human hepatic stellate cells (HSCs, Sciencell) were cultured in the Stellate Cell Medium (Sciencell) with 1% Stellate Cell Growth Supplement, 2% fetal bovine serum (FBS), and 1% penicillin/streptomycin solution (Sciencell). Cells were kept in the incubator (37 °C, 5% CO2). At the beginning of the experiment, cells were seeded in the 96-well plates at a density of 5 × 10^3 cells per well and incubated in the incubator for 24 h. After the incubation period, medium was removed and HSCs were exposed to 100 µL of the compound solutions over a range of concentrations (10–0.1 µM) or nothing but culture medium (blank control). Cells were further incubated for 24 h. At the end, medium was removed, cells were washed with PBS, and 50 µL of the MTT solution (0.75 mg/mL) was added to the cells. Plates were kept in the dark for 2 h at 37 °C. Finally, the MTT solution was removed and 100 µL of DMSO was added to each well. Plates with DMSO were kept at room temperature for 10 min. After this time, 5 µL of Sorensen Buffer was added to each well. Plates were swayed and the absorbance was measured at a wavelength of 570 nm by a microplate reader (Synergy H1, BioTek). The cell viability was expressed as a percentage of the control values (blank control).

Data set [9] deals with Human hepatic stellate cells (HSCs). In words: in vitro. The data set is classed as cell-based. Conditions: HSCs, 24 h. Here is the method: as §1
The conditions of data set [10]: Experimental Properties; cited from earlier work. The source holds these as a separate data set.

Sequence of BuChE from equine serum (P81908 whole entry): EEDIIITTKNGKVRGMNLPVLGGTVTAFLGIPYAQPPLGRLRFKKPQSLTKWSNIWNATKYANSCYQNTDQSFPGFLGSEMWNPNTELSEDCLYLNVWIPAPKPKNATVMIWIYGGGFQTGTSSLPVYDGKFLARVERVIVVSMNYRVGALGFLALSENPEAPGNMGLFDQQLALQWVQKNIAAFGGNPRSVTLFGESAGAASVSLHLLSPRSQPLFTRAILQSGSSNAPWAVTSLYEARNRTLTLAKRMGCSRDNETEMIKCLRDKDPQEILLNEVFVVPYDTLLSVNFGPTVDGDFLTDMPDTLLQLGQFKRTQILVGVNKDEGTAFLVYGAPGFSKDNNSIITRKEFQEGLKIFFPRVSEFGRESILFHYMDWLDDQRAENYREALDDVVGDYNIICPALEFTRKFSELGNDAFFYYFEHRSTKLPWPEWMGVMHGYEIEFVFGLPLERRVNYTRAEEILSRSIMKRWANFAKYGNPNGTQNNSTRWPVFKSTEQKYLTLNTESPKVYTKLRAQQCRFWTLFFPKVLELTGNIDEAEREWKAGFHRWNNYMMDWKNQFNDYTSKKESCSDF

For Heparin [positive control], in data set [1], half-maximal inhibition (IC50) was put at 56400 ± 780 nM.

`O=C(NCCCNc1c2c(nc3ccccc13)CCCC2)c1cc(Cl)cc(Cl)c1` [Compound 3b]: in data set [2], the “Selectivity for AChE” value was determined as 0.174 and the 50% inhibitory concentration (IC50) is 139 ± 5 nM. Further, in data set [3], the “Selectivity for BuChE” value came out at 5.756 and the IC50 stood at 24 ± 1 nM.

Turning to `CC(CN1c2ccccc2Sc2ccccc21)N(C)C.Cl` (centres unmarked) [Prometazine HCl], the pKa in data set [4] is 9.1 [52].

Turning to `O=C(NCCCCCCCCCNc1c2c(nc3ccccc13)CCCC2)c1cc(Cl)cc(Cl)c1` [Compound 3h], in [2], the “Selectivity for AChE” value is 2.914 and the IC50 was 111 ± 4 nM. For the same molecule, in [3], the “Selectivity for BuChE” value was 0.343 and the IC50 turned out to be 324 ± 47 nM.

Consider `Cc1c(C)c2c(c(C)c1O)CCC(C)(C(=O)O)O2` (centres unmarked) [Trolox, reference compound], for which the neuroprotection in data set [5] (0.001 µM) came out at 5.60%; in data set [5] (0.01 µM), 4.67%; in data set [6], 2.15%; in data set [7] (compound 0.01 µM), 77.16%; in data set [7] (compound 0.1 µM), 91.22%; in [7] (compound 1 µM), 96.03%. Further, the neuroprotection in data set [7] (compound 10 µM) came out at 95.05%.

Take `Cl.O=C(NCCNc1c2c(nc3ccccc13)CCCC2)c1cc(Cl)cc(Cl)c1` [Compound 3a]: in data set [2], the “Selectivity for AChE” value is on record as 0.203 and the IC50 is 690 ± 108 nM. Also, in [3], the “Selectivity for BuChE” value is listed as 4.935 and the IC50 was 140 ± 12 nM.

Turning to `O=C(NCCCCCCCNc1c2c(nc3ccccc13)CCCC2)c1cc(Cl)cc(Cl)c1` [Compound 3f], in data set [2], the “Selectivity for AChE” value was found to be 0.289 and the concentration for half-maximal inhibition (IC50) was 115 ± 12 nM. In data set [3], the “Selectivity for BuChE” value stood at 3.457 and the concentration for half-maximal inhibition (IC50) was determined as 33 ± 6 nM.

Take `Nc1c2c(nc3ccccc13)CCCC2` [Tacrine, reference compound]: in data set [8], the viability at 24 h, 10 µM came to 90.3%. Besides, the “hepatotoxicity (MTT; cell viability as percentage of control)” value is 100.67% ± 1.03% in data set [9] (0.1 µM) and 99.48% ± 0.74% in data set [9] (1 µM).

Consider `CSc1ccc2c(c1)N(CCC1CCCCN1C)c1ccccc1S2.Cl` (centres unmarked) [Thiorydazine HCl], for which, in data set [10], the logP was 5.9. Also, in data set [4], the pKa was 9.5 [54].

On to `O=C(NCCCCCCNc1c2c(nc3ccccc13)CCCC2)c1cc(Cl)cc(Cl)c1` [Compound 3e], for which the IC50 in data set [2] and in [3] was greater than 20000 nM each time.

Regarding `O=C(NCCCCCNc1c2c(nc3ccccc13)CCCC2)c1cc(Cl)cc(Cl)c1` [Compound 3d], the concentration for half-maximal inhibition (IC50) was > 12000 nM and 12400 nM in [2]; greater than 20000 nM in data set [3].

`O=C(NCCCCCCCCNc1c2c(nc3ccccc13)CCCC2)c1cc(Cl)cc(Cl)c1` [Compound 3g]: in data set [2], the “Selectivity for AChE” value worked out at 0.634 and the IC50 came to 958 ± 36 nM. In [3], the “Selectivity for BuChE” value was 1.577 and the IC50 was determined as 607 ± 20 nM.

As a reminder, the IC50 is the concentration that inhibits the measured activity by half. The term pKa denotes the pH at which an ionisable group is half protonated. In general, viability refers to a read-out of living cells in per cent, often relative to untreated cells. For orientation: logP means the decadic logarithm of the partition coefficient of the neutral form, usually between octanol and water.
